# Measured values as given in ChEMBL document CHEMBL3430912, “GSK Tres Cantos Anti-Kinetoplastid Screening (TCAKS) Data”.
# Key:
# [1] = system: Trypanosoma cruzi; assay: GSK_TCAKS: pIC50 Trypanosoma cruzi viability assay using beta-GAL activity. This assay was run at single shot at 5uM compound concentration per well. The biological reagents consisted of NIH-3T3 host cells and trypomastigotes parasitic cells; both cell types were set to a 3.3 * 10^5 cells/mL dilution in assay DMEM by means of a CASY cell counter device using a 60um capillary. 6 uL of the mixture were dispensed per well (about 1 * 10^3 host-cells and 1 * 10^3 parasites) with a Multidrop Combi dispenser. […] In all wells, the percentage of DMSO never exceeded 0.5%. Plates incubated for four days at 37C, 5% CO2. The substrate used for the assay fluorescence intensity (FLINT) readout was resorufin-beta-D-galactopiranoside (Sigma-Aldrich) at 5uM per well. It was diluted in PBS supplemented with the soft detergent Igepal (Fluka).; type: functional, organism-based, Mus musculus; conditions: Tulahuen, NIH3T3
# [2] = system: Trypanosoma cruzi; assay: (§1) GSK_TCAKS: pIC50 Trypanosoma cruzi Imaging: Infected Cells. […] Cells were then washed once with PBS before infection. T. cruzi trypomastigotes, collected at days 5 to 8 after infection from LLC-MK2 parasite infected cultures, were allowed to swim out for 4h at 37C from a centrifuged pellet (2,500 rpm/10 min/room temperature). Trypomastigotes were then collected and counted in a CASY Cell Counter. Trypomastigotes, in supplemented DMEM, were added to H9c2 cultures in a multiplicity of infection of 1 and incubated for 18 h. Cells were washed once with PBS before incubation of the infected H9c2 monolayer with trypsin (Life-Technologies) to detach cells from the flask. Cells were counted in a CASY Cell Counter using a 150 um capillary and their density set at 5 * 10^4 cells per mL in supplemented assay DMEM. Infected H9c2 were dispensed into 384-well poly-lysine coated assay plates at 50uL per well using a Multidrop Combi dispenser. After seeding them, the plates were incubated at 37C, 5% CO2 for 72h. Cultures were then fixed and stained by addition of 50 uL of a solution containing 8% formaldehyde and 4 uM DRAQ5 DNA dye (BioStatus, UK) per well. […] Five images were collected per well for reliable statistical analysis. Automated image analysis was performed with a script developed on Acapella High Content Imaging and Analysis Software (PerkinElmer). Output: percentage of infected cells per well as a second infection marker.; type: functional, organism-based, Rattus norvegicus; conditions: H9c2, 4 h
# [3] = system: Trypanosoma cruzi; assay: GSK_TCAKS: pIC50 Trypanosoma cruzi Imaging: Amastigotes/Cell. […] Cells were then washed once with PBS before infection. T. cruzi trypomastigotes, collected at days 5 to 8 after infection from LLC-MK2 parasite infected cultures, were allowed to swim out for 4h at 37C from a centrifuged pellet (2,500 rpm/10 min/room temperature). Trypomastigotes were then collected and counted in a CASY Cell Counter. Trypomastigotes, in supplemented DMEM, were added to H9c2 cultures in a multiplicity of infection of 1 and incubated for 18 h. Cells were washed once with PBS before incubation of the infected H9c2 monolayer with trypsin (Life-Technologies) to detach cells from the flask. Cells were counted in a CASY Cell Counter using a 150 um capillary and their density set at 5 * 10^4 cells per mL in supplemented assay DMEM. Infected H9c2 were dispensed into 384-well poly-lysine coated assay plates at 50uL per well using a Multidrop Combi dispenser. After seeding them, the plates were incubated at 37C, 5% CO2 for 72h. Cultures were then fixed and stained by addition of 50 uL of a solution containing 8% formaldehyde and 4 uM DRAQ5 DNA dye (BioStatus, UK) per well. […] Five images were collected per well for reliable statistical analysis. Automated image analysis was performed with a script developed on Acapella High Content Imaging and Analysis Software (PerkinElmer). Output: number of amastigotes per cell as infection level measurement.; type: functional, organism-based, Rattus norvegicus; conditions: H9c2, 4 h
# [4] = system: Trypanosoma cruzi; assay: as §1, with “H2C9” for “Trypanosoma cruzi”, “H9c2 Host Cardiomyocytes.” for “Infected Cells.”, “Number” for “percentage”, “H9c2 Host Cardiomyocytes nuclei to determine drug-related cytotoxicity.” for “infected cells per well as a second infection marker.”; type: functional, organism-based, Rattus norvegicus; conditions: H9c2, 4 h
# [5] = system: Leishmania donovani; assay: GSK_TCAKS: pIC50 Leishmania donovani viability assay using fluorescence intensity. Assay plates (1536-well) were prepared by adding 30nL per well of compound. For single shot assay, the final compound concentration was 5uM. […] Briefly, eGFP LdBOB axenic amastigotes were harvested, fixed and counted in a CASY cell counter (Roche-Applied Science). A final concentration of 1.5 * 10^5 cells per well were prepared in amastigote media containing 500 U/mL penicillin/streptomycin (Invitrogen) and 6uL was dispensed to each experimental well using a Multidrop Combi dispenser (Thermo Scientific). 6uL of assay media was dispensed to control columns used as reference for 100% compound response. Following incubation for 72 h at 37C, 5% CO2, 2 uL of resazurin was added to each well at a final concentration of 0.5 mM in phosphate buffered saline (PBS) with IGEPAL (Sigma-Aldrich), 0.05% (v/v).; type: functional, organism-based
# [6] = system: Leishmania donovani; assay: GSK_TCAKS: pIC50 Leishmania donovani Imaging: Infected Macrophages. Assay plates (384-well) were prepared by adding 250nL of compound to each well. For single shot assay, the final compound concentration was 5 uM. […] Automated image analysis was performed with a script developed on Acapella High Content Imaging and Analysis Software (PerkinElmer). Output: Percent of infected macrophage cells were reported for each well.; type: functional, organism-based, Homo sapiens; conditions: THP-1
# [7] = system: Leishmania donovani; assay: GSK_TCAKS: pIC50 Leishmania donovani Imaging: Amastigotes/Macrophages. Assay plates (384-well) were prepared by adding 250nL of compound to each well. For single shot assay, the final compound concentration was 5 uM. […] Automated image analysis was performed with a script developed on Acapella High Content Imaging and Analysis Software (PerkinElmer). Output: Average number of amastigotes per macrophage cell were reported for each well.; type: functional, organism-based, Homo sapiens; conditions: THP-1
# [8] = system: Leishmania donovani; assay: GSK_TCAKS: pIC50 Leishmania donovani Imaging: THP-1 Host Macrophages. Assay plates (384-well) were prepared by adding 250nL of compound to each well. For single shot assay, the final compound concentration was 5 uM. […] Automated image analysis was performed with a script developed on Acapella High Content Imaging and Analysis Software (PerkinElmer). Output: THP-1 cell count were reported for each well.; type: functional, organism-based, Homo sapiens
# [9] = system: Trypanosoma brucei brucei; assay: GSK_TCAKS: pIC50 Trypanosoma brucei viability assay using fluorescence intensity. Assay plates (1536-well) were prepared by dispensing 25nL of compound solution per well using an Echo acoustic dispenser (Labcyte).; type: functional, organism-based; conditions: Lister 427, 2 h
# [10] = system: Trypanosoma brucei brucei; assay: GSK_TCAKS: pIC50 Trypanosoma brucei viability assay using luminiscence. Assay plates (1536-well) were prepared. T. brucei cultures were harvested and counted in a CASY cell counter. A parasite suspension was prepared at a final concentration of 5 * 10^4 cells/mL in complete HMI9 medium and 6uL was dispensed to all wells containing compounds using a Multidrop Combi dispenser. 6uL of HMI9 media with 0.4% DMSO were dispensed to control columns. Plates were incubated for 24 h at 37C, 5% CO2 then tempered for 10 min at room temperature. ATP content was quantified by adding 4 uL of CellTiter-Glo Reagent (Promega) according to the manufacturer's instructions. Luminescence was measured using a ViewLux.; type: functional, organism-based; conditions: Lister 427, CASY
# [11] = GSK_TCAKS: pIC50 HepG2 human cell line viability assay using luminiscence. […] Seeding density was checked to ensure that new mono-layers were not more than 50% confluent at the time of harvesting. Cell suspension was added to 500 mL of the same medium at a final density of 1.2 * 10^5 cells/mL. This cell suspension was dispensed (25 uL, 3000 cells per well) into 384-well clear-bottom plates using a Multidrop Combi dispenser. Prior to addition of the cell suspension, the screening compounds (250 nL) were pre-dispensed into the plates with an Echo liquid handler. Plates were incubated for 48 h at 37C, 5% CO2. After incubation, plates equilibrated at room temperature for 30 min before proceeding to develop the luminescent signal. The signal developer, CellTiter-Glo Reagent, was allowed to equilibrate at room temperature for 30 min and added to the plates (25uL per well) using a Multidrop Combi dispenser. Plates were left for 10 min at room temperature for stabilization and then read using a ViewLux.; type: toxicity, cell-based
# [12] = biological target: Sterol 14-alpha demethylase (Trypanosoma cruzi (strain CL Brener), UniProt Q7Z1V1); assay: GSK_TCAKS: pIC50 CYP51 from Trypanosoma cruzi.; type: functional
# Chain of Sterol 14-alpha demethylase (Q7Z1V1 whole entry): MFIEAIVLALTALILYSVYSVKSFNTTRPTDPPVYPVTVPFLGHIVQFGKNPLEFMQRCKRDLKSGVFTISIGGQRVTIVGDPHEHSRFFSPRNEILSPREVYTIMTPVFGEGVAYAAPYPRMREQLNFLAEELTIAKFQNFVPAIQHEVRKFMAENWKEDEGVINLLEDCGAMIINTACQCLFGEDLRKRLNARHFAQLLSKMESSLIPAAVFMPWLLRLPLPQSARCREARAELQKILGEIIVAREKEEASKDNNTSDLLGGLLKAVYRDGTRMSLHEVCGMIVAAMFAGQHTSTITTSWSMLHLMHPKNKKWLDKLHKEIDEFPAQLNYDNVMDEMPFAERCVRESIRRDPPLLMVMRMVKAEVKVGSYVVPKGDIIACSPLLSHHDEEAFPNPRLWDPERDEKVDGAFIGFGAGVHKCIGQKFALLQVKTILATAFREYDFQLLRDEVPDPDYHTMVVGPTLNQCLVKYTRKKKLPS
Compound,IC50 [1] [µM],IC50 [2] [µM],IC50 [3] [µM],IC50 [4] [µM],IC50 [5] [µM],IC50 [6] [µM],IC50 [7] [µM],IC50 [8] [µM],IC50 [9] [µM],IC50 [10] [µM],IC50 at 48 h [11] [µM],IC50 [12] [µM]
O=C(CCc1ccc(-c2ccccc2)o1)N1CCN(c2ccc(O)cc2)CC1,3.16,1.26,0.794,> 50.1,10,3.98,1.26,> 50.1,25.1,39.8,> 100,2.51
COc1cnc2ccc(=O)n(CCN3CCC(NC(=O)Cc4ccc(Cl)c(Cl)c4)CC3)c2c1,0.316,0.398,0.158,6.31,5.01,39.8,5.01,25.1,0.251,0.501,63.1,0.794
O=C(CN1CCN(c2ccccn2)CC1)Nc1cc(S(=O)(=O)N2CCCCCC2)ccc1Cl,10,7.94,6.31,> 50.1,7.94,6.31,1.26,50.1,12.6,25.1,> 100,3.16
CC(C)COC(=O)Nc1ccc(N2CCC(CNS(=O)(=O)c3ccccc3)CC2)c(F)c1,10,7.94,7.94,> 79.4,3.98,2,1.26,> 50.1,2.51,20,> 100,2
Cn1c(CC(=O)NNC(=O)c2ccc3ccccc3n2)nc2ccccc21,3.16,5.01,6.31,> 50.1,6.31,1.26,0.794,> 50.1,7.94,6.31,> 100,31.6
O=C(NNC(=O)c1ccccn1)c1ccc(-c2ccccc2)cc1,1.58,1.58,1.26,2,3.16,6.31,3.16,3.16,0.316,0.631,> 100,31.6
COc1ccc(C(=O)Nc2ccc(NC(=O)CO)cc2)cc1,> 50.1,> 50.1,> 50.1,> 50.1,> 50.1,> 50.1,> 50.1,20,0.251,0.251,> 100,> 100
CN(C)S(=O)(=O)c1ccc(Cl)c(C(=O)Nc2nc(-c3ccccn3)cs2)c1,1.58,2,1.26,6.31,2,10,5.01,6.31,0.501,0.398,> 100,31.6
Cc1nc(C(=O)Nc2ccc3c(c2)OCO3)nn1-c1ccc(Cl)cc1,6.31,1.58,1,> 50.1,2.51,2,1.58,12.6,> 39.8,> 39.8,> 100,31.6
Cc1noc(C)c1COc1cccc(C(=O)N=c2[nH]cccc2C)c1,> 50.1,50.1,39.8,2.51,> 50.1,20,10,6.31,0.398,0.794,> 100,50.1
Cc1nc(C(=O)Nc2ccc3c(c2)OCO3)nn1-c1ccc(F)cc1,3.16,1.26,1,> 50.1,2,7.94,2.51,> 50.1,> 39.8,> 39.8,> 100,39.8
